Results: article PMC5876303, “Discovery of C-3 Tethered 2-oxo-benzo[1,4]oxazines as Potent Antioxidants: Bio-Inspired Based Design, Synthesis, Biological Evaluation, Cytotoxic, and in Silico Molecular Docking Studies” (Frontiers in Chemistry, 2018)
Entries after “also recorded” stand apart in the source; their conditions may differ.

Columns and labels:
[1] = DPPH radical scavenging antioxidant assay; assay type: biochemical; conditions: Table 1; mean ± SD, n = 3; 517 nm after 20 min
Protocol: In DPPH radical scavenging method the plant extract (0.75 mL) at different concentrations ranging from 10 to 100 μg mL^−1 was mixed with 1.5 mL of a DPPH methanolic solution (20 mg L^−1). Pure methanol was taken as control and ascorbic acid (vitamin C), vitamins A and E were used as a reference compounds. The absorbance was measured at 517 nm after 20 min of reaction. The % of DPPH decolouration of the sample was calculated according to the formula (Sharma and Bhat, [2009]).
Decolouration % = [1−(Abs SAMPLE/Abs CONTROL)]×100
The decolouration was plotted against the sample extract concentration and a logarithmic regression curve was established in order to calculate the IC50. The results are expressed as antiradical efficiency (AE), which is 1000-fold inverse of the IC50 value AE=1000/ IC50.

[2] = Ferric reducing antioxidant power (FRAP) assay; assay type: biochemical; conditions: for FRAP assay (C0.5FRAP): mean ± SD, n = 3, concentration equivalent to FeSO4 at 0.5 mmol/L, 37°C, 30 min, 593 nm; for FRAP potency compared with standard reference BHT: in words, BHT C0.5FRAP = 546.0 ± 13.6 μM
Protocol: The FRAP reagent was prepared by the addition of freshly prepared 20.0 mM FeCl3.6H2O solution, 10.0 mM of […] (TPTZ) solution and 300 mM sodium acetate buffer (pH 3.6) in a ratio of 1:1:10 (v/v/v). After that, Sample (our synthesized 2-oxo-2-phenylethylidenes-linked 2-oxo-benzo[1,4]oxazines 20a-ab) was added to 3 ml of freshly prepared FRAP reagent and this reaction mixture was incubated at 37°C temperature for 30 min. and the absorbance was measured at 593 nm. It is also noted that, a freshly prepared solution of FeSO4 was used for calibration of standard curve. The FRAP antioxidant capability were evaluated in terms of C0.5FRAP (the antioxidant capability of samples related to their concentration, which is equivalent to that of FeSO4 at 0.5 mmol/L) (Benzie and Strain, [1996]).
The FRAP assay was deliberated using the method as illustrated by Benzie and Strain (Benzie and Strain, [1996]). […] The reducing nature of an antioxidant depends on their property to donate a hydrogen atom for the breaking of the free radical chain, which is responsible for oxidative stress etc.

SMILES	DPPH assay IC50 [1]	FRAP assay (C0.5FRAP) [2]	FRAP potency compared with standard reference BHT [2]	melting point
O=C1O[C@H]([C@@H](O)CO)C(O)=C1O [Ascorbic acid, reference compound]	4.57 µg/mL	–	–	–
Cc1cc(C(C)(C)C)c(O)c(C(C)(C)C)c1 [BHT, reference compound]	–	546.0 ± 13.6 µM	–	–
O=C1Oc2ccccc2N/C1=C\C(=O)c1ccccc1 [Compound 20a, (Z)-3-(2-oxo-2-phenylethylidene)-3,4-dihydro-2H-benzo[b][1,4]oxazin-2-one]	10.2 ± 0.08 µg/mL	611.5 ± 23.2 µM	less active than BHT	–
O=C1Oc2cc([N+](=O)[O-])ccc2N/C1=C\C(=O)c1ccc(Br)cc1 [Compound 20aa, (Z)-3-(2-(4-bromophenyl)-2-oxoethylidene)-7-nitro-3,4-dihydro-2H-benzo[b][1,4]oxazin-2-one]	28.37 ± 0.16 µg/mL	518.6 ± 17.6 µM	more potent than standard reference BHT	230 to 232 °C
COc1ccc(C(=O)/C=C2\Nc3ccc([N+](=O)[O-])cc3OC2=O)cc1 [Compound 20ab, (Z)-3-(2-(4-methoxyphenyl)-2-oxoethylidene)-7-nitro-3,4-dihydro-2H-benzo[b][1,4]oxazin-2-one]	43.6 ± 0.74 µg/mL	–	–	–
O=C1Oc2ccc(Cl)cc2N/C1=C\C(=O)c1ccccc1 [Compound 20c, (Z)-6-chloro-3-(2-oxo-2-phenylethylidene)-3,4-dihydro-2H-benzo[b][1,4]oxazin-2-one]	28.8 ± 0.6 µg/mL	467.8 ± 22.4 µM	greater potency; also recorded: more potent than standard reference BHT	185 to 187 °C
O=C1Oc2ccc(Cl)cc2N/C1=C\C(=O)c1ccc(F)cc1 [Compound 20d, (Z)-6-chloro-3-(2-(4-fluorophenyl)-2-oxoethylidene)-3,4-dihydro-2H-benzo[b][1,4]oxazin-2-one]	45.2 ± 0.92 µg/mL	732.7 ± 41.6 µM	–	155 to 157 °C
O=C1Oc2ccc(Cl)cc2N/C1=C\C(=O)c1ccc(Cl)cc1 [Compound 20e, (Z)-6-chloro-3-(2-(4-chlorophenyl)-2-oxoethylidene)-3,4-dihydro-2H-benzo[b][1,4]oxazin-2-one]	92.2 ± 1.54 µg/mL	–	–	182 to 185 °C
O=C1Oc2ccc(Cl)cc2N/C1=C\C(=O)c1ccc(Cl)cc1Cl [Compound 20f, (Z)-6-chloro-3-(2-(2,4-dichlorophenyl)-2-oxoethylidene)-3,4-dihydro-2H-benzo[b][1,4]oxazine-2-One]	56.6 ± 1.12 µg/mL	–	–	135 to 137 °C
O=C1Oc2ccc(Cl)cc2N/C1=C\C(=O)c1ccc(Br)cc1 [Compound 20g, (Z)-3-(2-(4-bromophenyl)-2-oxoethylidene)-6-chloro-3,4-dihydro-2H-benzo[b][1,4]oxazin-2-one]	61.2 ± 1.23 µg/mL	798.6 ± 32.5 µM	–	175 to 177 °C
Cc1ccc(C(=O)/C=C2\Nc3cc(Cl)ccc3OC2=O)cc1 [Compound 20h, (Z)-6-chloro-3-(2-oxo-2-(p-tolyl)ethylidene)-3,4-dihydro-2H-benzo[b][1,4]oxazin-2-one]	44.8 ± 0.81 µg/mL	821.9 ± 38.7 µM	–	160 to 162 °C
COc1ccc(C(=O)/C=C2\Nc3cc(Cl)ccc3OC2=O)cc1 [Compound 20i, (Z)-6-chloro-3-(2-(4-methoxyphenyl)-2-oxoethylidene)-3,4-dihydro-2H-benzo[b][1,4]oxazin-2-one]	34.9 ± 0.73 µg/mL	648.2 ± 29.5 µM	–	–
Cc1ccc2c(c1)N/C(=C\C(=O)c1ccc(F)cc1)C(=O)O2 [Compound 20j, (Z)-3-(2-(4-fluorophenyl)-2-oxoethylidene)-6-methyl-3,4-dihydro-2H-benzo[1,4]oxazin-2-one]	34.4 ± 0.7 µg/mL	502.6 ± 18.2 µM	more potent than standard reference BHT	–
Cc1ccc2c(c1)N/C(=C\C(=O)c1ccc(Cl)cc1Cl)C(=O)O2 [Compound 20k, (Z)-3-[2-(2,4-dichloro-phenyl)-2-oxo-ethylidene]-6-methyl-3,4-dihydro-benzo[1,4]oxazin-2-one]	43.6 ± 0.92 µg/mL	652.5 ± 30.6 µM	–	142 to 145 °C
COc1ccc(C(=O)/C=C2\Nc3cc(C)ccc3OC2=O)cc1 [Compound 20l, (Z)-3-[2-(4-methoxy-phenyl)-2-oxo-ethylidene]-6-methyl-3,4-dihydro-benzo[1,4]oxazin-2-one]	43.8 ± 0.85 µg/mL	–	–	180 to 182 °C
Cc1cc(Br)c2c(c1)N/C(=C\C(=O)c1ccccc1)C(=O)O2 [Compound 20m, (Z)-8-bromo-6-methyl-3-(2-oxo-2-phenylethylidene)-3,4-dihydro-2H-benzo[b][1,4]oxazin-2-one]	24.4 ± 0.46 µg/mL	536.7 ± 21.4 µM	greater potency; also recorded: more potent than standard reference BHT	–
Cc1cc(Br)c2c(c1)N/C(=C\C(=O)c1ccc(F)cc1)C(=O)O2 [Compound 20n, (Z)-8-bromo-3-(2-(4-fluorophenyl)-2-oxoethylidene)-6-methyl-3,4-dihydro-2H-benzo[b][1,4] oxazin-2-one]	16.9 ± 0.72 µg/mL	482.5 ± 35.5 µM	more potent than standard reference BHT	–
Cc1cc(Br)c2c(c1)N/C(=C\C(=O)c1ccc(Cl)cc1Cl)C(=O)O2 [Compound 20o, (Z)-8-bromo-3-(2-(2,4-dichlorophenyl)-2-oxoethylidene)-6-methyl-3,4-dihydro-2H-benzo [b][1,4]oxazin-2-one]	22.5 ± 0.64 µg/mL	641.6 ± 28.7 µM	–	–
Cc1cc(Br)c2c(c1)N/C(=C\C(=O)c1ccc(Br)cc1)C(=O)O2 [Compound 20p, (Z)-8-bromo-3-(2-(4-bromophenyl)-2-oxoethylidene)-6-methyl-3,4-dihydro-2H-benzo[b] [1,4]oxazin-2-one]	44.3 ± 0.45 µg/mL	>1000 µM	–	259 to 260 °C
Cc1ccc(C(=O)/C=C2\Nc3cc(C)cc(Br)c3OC2=O)cc1 [Compound 20q, (Z)-8-bromo-6-methyl-3-(2-oxo-2-(p-tolyl)ethylidene)-3,4-dihydro-2H-benzo[b][1,4]oxazin-2-one]	36.24 ± 0.27 µg/mL	–	–	219 to 220 °C
Cc1ccc2c(c1)N/C(=C\C(=O)c1ccc([N+](=O)[O-])cc1)C(=O)O2 [Compound 20r, (Z)-6-methyl-3-(2-(4-nitrophenyl)-2-oxoethylidene)-3,4-dihydro-2H-benzo[1,4]oxazin-2-one]	12.23 ± 0.05 µg/mL	328.6 ± 25.8 µM	potent activity than BHT; also recorded: more potent than standard reference BHT	–
O=C1Oc2ccccc2N/C1=C\C(=O)c1ccc([N+](=O)[O-])cc1 [Compound 20s, (Z)-3-(2-(4-nitrophenyl)-2-oxoethylidene)-3,4-dihydro-2H-benzo[b][1,4]oxazin-2-one]	21.3 ± 0.28 µg/mL	618.4 ± 23.9 µM	less active	207 to 209 °C
O=C1Oc2ccc([N+](=O)[O-])cc2N/C1=C\C(=O)c1ccc(F)cc1 [Compound 20u, (Z)-3-(2-(4-fluorophenyl)-2-oxoethylidene)-6-nitro-3,4-dihydro-2H-benzo[b][1,4]oxazin-2-one]	32.1 ± 0.52 µg/mL	424.5 ± 19.7 µM	more potent than standard reference BHT	> 250 °C
COc1ccc(C(=O)/C=C2\Nc3cc([N+](=O)[O-])ccc3OC2=O)cc1 [Compound 20v, (Z)-3-(2-(4-methoxyphenyl)-2-oxoethylidene)-6-nitro-3,4-dihydro-2H-benzo[b][1,4]oxazin-2-one]	43.6 ± 0.92 µg/mL	–	–	195 to 197 °C
O=C1Oc2cc([N+](=O)[O-])ccc2N/C1=C\C(=O)c1ccccc1 [Compound 20w, (Z)-7-nitro-3-(2-oxo-2-phenylethylidene)-3,4-dihydro-2H-benzo[b][1,4]oxazin-2-one]	12.53 ± 0.09 µg/mL	597.4 ± 26.4 µM	less active than BHT	240 to 242 °C
O=C1Oc2cc([N+](=O)[O-])ccc2N/C1=C\C(=O)c1ccc(Cl)cc1 [Compound 20y, (Z)-3-(2-(4-chlorophenyl)-2-oxoethylidene)-7-nitro-3,4-dihydro-2H-benzo[b][1,4]oxazin-2-one]	19.8 ± 0.35 µg/mL	708.2 ± 27.1 µM	–	205 to 207 °C
